What was measured:
A549 cells = test: In vitro anti-proliferation (CellTiter-Glo, 72 hr), A549; type: cell-based, human
Description: Commercially available 8HQ and freshly synthesized G2-8HQ were prepared for in vitro anti-proliferative studies against the following cell lines with and without the presence of 10 μM Cu(+2): (1) A549: […]; (2) BT-549: epithelial cells from ductal tumor; (3) DU-145: human prostate cancer; (4) PANC-1: pancreatic cancer; (5) SU.86.86: a new adoptive pancreatic cell for immunotherapy studies; (6) RL: non-Hodgkin's lymphoma; (7) LnCAP, Prostate cancer cell line; (8) A431, a squamous cell carcinoma line; and (9) UACC-62 a malignant melanoma cell line.
With regard to the study protocol used, the objective was to conduct a study of the cytotoxicity of W1469 against several cancer cell lines. In the study protocol, preparations for the A549 (Lung) cell line screen are given as an example. The following materials were used: (1) FBS (2) RPMI-1640 medium supplemented with 10% FBS:’ and (3) A549 Cells. The four samples tested are referred to as Items 1-4 below and were placed at 4 °C upon arrival. These four samples were as follows: • Item 1: Tube A (W1469) (500 uM when FBS added) • Item 2: Tube B (W1469g) (1000 uM when FBS added) • Item 3: Tube C (W1469) • Item 4: Tube D (W1469g)
Items 1 and 2 are sterile ready for the addition of 1 ml of sterile FBS. Final concentrations after addition of 1 ml: 500 μM for Tube A and 1000 μM for Tube B. Items 3 and 4 are described further below. In the protocol, media containing 10% FBS and 20 μM CuCl2 are used in Tubes C and D only. A and B are serially diluted in media with 10% FBS and no added copper.
The protocol method proceeds as follows:
Seed 2, 96-well plates of A549 cells with 5,000 cells per well in a total volume of 50 μL per well. Leave overnight. See plate layout below for which wells to seed with 100 μL of media for media control. The following day, cells are exposed to compounds as described below.
For Items 1 & 2, to make the 500 μM and 1000 μM Stocks of samples 1 and 2 (W1469 and W1469g): Add 1 ml of sterile FBS to each Tube A and Tube B, swirl to mix.
To make appropriate 2× final dilutions of sample 1, Tube A (W1469), the following amounts are used: • 500 μM: 10 mL as supplied • 100 μM: 2 mL 500 μM Sample+8 mL media • 30 μM: 3 mL 100 μM Sample+7 mL media • 10 μM: 3 mL 30 μM Sample+6 mL media • 3 μM: 3 mL 10 μM Sample+7 mL media • 1 μM: 3 mL 3 μM Sample+6 mL media • 0.3 μM: 3 mL 1 μM Sample+7 mL media • 0.1 μM: 3 mL 0.3 μM Sample+6 mL media
To make appropriate 2× final dilutions of sample 2, Tube B (W1469g), the following amounts are used: • 1000 μM: 10 mL as supplied • 300 μM: 3 mL 1000 μM Sample+7 mL media • 100 μM: 3 mL 300 μM Sample+6 mL media • 30 μM: 3 mL 100 μM Sample+7 mL media • 10 μM: 3 mL 30 μM Sample+6 mL media • 3 μM: 3 mL 10 μM Sample+7 mL media • 1 μM: 3 mL 3 μM Sample+6 mL media • 0.3 μM: 3 mL 1 μM Sample+7 mL media
For Items 3 & 4, the following protocol was used to make 1000 uM Stocks of samples 3 and 4 (W1469 and W1469g): • 1: Dissolve 3.37 mg W1469 and excipient (Tube C) in 1 ml RPMI medium without added FBS and copper and swirl briefly until completely dissolved. Add 9 ml of RPMI media containing 10% FBS and 20 uM copper. Swirl to mix. Sterile filter the 10 ml with provided syringes and filters. This is now the 1000 μM stock solution W1469 ready for screening • 2: Dissolve 3.2 mg W1469g and excipient (Tube D) in 1 ml RPMI medium without added FBS and copper and swirl briefly until completely dissolved. […] This is now the 1000 μM stock solution W1469g ready for screening. […]

For `O=C(O)[C@H]1O[C@@H](Oc2ccc3cccc(O)c3n2)[C@H](O)[C@@H](O)[C@@H]1O` [G2-8HQ, 8-Hydroxy-2-quinolinyl beta-D-glucopyranosiduronic acid], the “Solubility of Cu Complex/aqueous” value (Solubility; comparison Table 5) was “excellent”, the solubility (Solubility; water / aqueous) was “highly aqueous soluble” and the solubility (Solubility; water or PBS (at neutral pH)) was “highly soluble”. The cytotoxicity (A549 cells; 1 and 0.5 μM, presence of Cu^+2 ions, wide standard deviation) was “in some percentage of the screens all the cancer cells were killed at these concentrations”, the “improvement of cytotoxicity in presence of copper” value (A549 cells; A549, 10 or 20 μM Cu^+2 vs −Cu) was 8-18 fold and the IC50 (A549 cells; Homo sapiens, A549, 72 h, −Cu, 72 hr) was > 500 µM.
